# From patent US12410220B2, “Modulation of mammalian cell lineage by synthetic immodulins” (priority 2021, dated 2025)
# Read-outs that look alike come from different tables or passages of the source. Marks after values point to notes of the source that are not given here. Ends that are not written are not given here. Peptide text beside a SMILES is read from it. * marks the point of attachment. RG108 = O=C1c2ccccc2C(=O)N1[C@@H](Cc1c[nH]c2ccccc12)C(=O)*
# Key:
# THP1-Dual monocytes [1] = experiment: THP1-Dual monocyte differentiation assay, PMA protocol; type: cell-based, human; details: peptide 330 nM, 24 hours
# Protocol: (§1) Mammalian cell differentiation assays using THP1-Dual monocytes reporter cell line (Invivogen Inc, San Diego, CA) seeded at 2×10e5 cells per well in 96-well plates and cultured at 37 degrees C. in RPMI-1640 growth medium plus 10% fetal bovine serum and 1% penicillin/streptomycin, then treated for 24 hours with either 100 ng/ml Phorbol 12-myristate 13-acetate (PMA protocol; Cayman Chemical Company, Ann Arbor, MI) or a mixture of IL-4 (100 ng/ml), GM-CSF (100 ng/ml), TNF-alpha (20 ng/ml) and ionomycin (200 ng/ml) (Cytokine protocol; Peprotech, Rocky Hill, NJ). Peptide (330 nM) was then added, and incubation continued for an additional 24 hours. Culture supernatants were then assayed for CCL22. Plates with adherent cells were washed with PBS and assayed for immunoreactivity of surface markers such as CD169, Clec9a, Clec12a or MHCII using fuorescent tag- or biotin-labeled anti-human antibodies purchased from Miltenyi Biotec (Auburn, CA) and a relevant secondary detection reagent, or by fluorescence counts.
# [2] = Ferric iron-binding assay of biotinylated immodulin peptides; details: N-terminally biotinylated peptide, 400 ng per well, 60 min room temperature; immX3AVD = 100
# Text: N-terminally biotinylated versions of the peptides listed below were used in ferric iron-binding assays involving either an Alexa488-labeled streptavidin protocol (Binding Assay 1) or FITC-NTA assay (Binding Assay 2). Fluorescence was standardized to binding with immX3AVD control peptide (100) and the average of multiple experiments using both protocols is shown. P values are shown relative to the control immX3AVD peptide (**<0.05). D-amino acid residues are underlined in the sequences and the extension tripeptide of immX peptides is shown in bold font. Binding Assay 1 was done as follows: NTA coated 96-well plates (G-Biosciences, St. Louis, MO) were charged with ferric chloride and contacted with equimolar biotinylated peptide: streptavidin-A488 complex (400 ng peptide per well) for 60 min at room temperature, washed with phosphate-buffered saline (PBS) and read at 525 nm in a fluorescence counter. Binding Assay 2 was done as follows: Streptavidin coated 96-well plates (G-Biosciences, St. Louis, MO) were contacted with 400 ng peptide per well in PBS buffer for 60 minutes at room temperature, washed in PBS, then contacted with FITC-NTA (TRC, Toronto, Canada) complexed with equimolar ferric chloride (10× molar equivalent per well) for 60 min at room temperature, washed with PBS and read at 525 nm in a fluorescence counter.
# A375 cells = experiment: A375 cell viability (CellTiterGlo); type: cell-based; details: 72 hours
# Protocol: Immune modulation functions of immodulin peptides have great potential untility in the field of cancer. A375 cell line was obtained from American Type Culture Collection (ATCC). They were grown in a T-75 flask in DMEM Medium containing 10% fetal bovine serum and penicillin-streptomycin at 37° C. in a humidified, 5% CO2 incubator. Cells (100 µl, 2,000 cells/well) were plated in a 96-well plate and incubated overnight at 37° C. in a humidified, 5% CO2 incubator. Next day, 10 µl/well of compounds were added (quadruplicate wells). After 72 hour incubation with the compound, cell viability was measured in a luminometer after the addition of 100 IL/well CellTiterGlo reagent (Promega Inc, Madison, WI) as recommended by the manufacturer. Anti-cancer activity of immodulin peptides on A375 cells: A 96-well plate was seeded with 2,000 A375 cells per well in DMEM medium containing 10% FBS and PenStrep. After 24 hrs at 37 deg C., compounds and peptides were added (each treatment done in quadruplicate). After a further 72 hours incubation, 100 μL/well of CTG assay reagent purchased from Promega Inc. (Madison, WI) was added. Plate was read after 10 minutes, as recommended by the manufacturer. Peptides were added at 2 uM. The results of this experiment are shown below, expressed as percent survival of A375 cells.
# [3] = system: Pancreatic protease Type I; experiment: Experiment 5A peptide stability to protease degradation; type: in vitro ADME; details: 20 minutes at 37 degrees C, read-out: percentage of surviving peptide after protease treatment
# Protocol: Duplicate wells per dilution point in a 96-well NTA-coated plate (G-Biosciences, St. Louis, MO) charged with ferric chloride were adsorbed with 2 ug imm3N1V (V-nephrilin) or immX3N1 (sV-nephrilin) peptide per well for 30 min at room temperature, washed, then incubated with 100 ul/well of 8 or 2 μg/ml protease (Sigma Catalog #P4630, Pancreatic protease Type I) for 20 minutes at 37 degrees C. Plates were washed with PBS buffer and the remaining peptide bound was measured using an in-house calibrated anti-immodulin ELISA (rabbit polyclonal #2501). The percentages of surviving peptide after 8 or 2 μg/ml protease treatment were, respectively: V-nephrilin (imm3N1V): 57.6±2.3% and 79.0±0.7%; sV-nephrilin (immX3N1): 75.1±2.8% and 90.4±3.4% (p<0.001 at both concentrations). Thus, the immX tripeptide extension at the C-terminus using D-amino acids improved peptide stability to protease degradation.
# [4] = system: rat scald-endotoxemia model; experiment: Experiment 5B rat scald-endotoxemia model; type: in vivo, Sprague Dawley rats; details: for Change in body weight (Pct vs Day 1): Day 5; for Respiratory distress (Gp. “S” = 100): Day 8, 4 hours after LPS; for Wet/dry lung weight (corrected for body weight): Day 8, after LPS 2.5 mg/kg ip
# Protocol: Experiment 5B. This study explores the effect of immX extensions on sV-nephrilin (SEQ ID NO:31) vs V-nephrilin, as well as in a longer peptide also containing the immX extension (Traumatin-3N1A: SEQ ID NO:35) on in vivo efficacy in a rat scald-endotoxemia model. Animals were treated with peptides using a widely used protocol previously described (see, for example, U.S. Pat. No. 10,369,191). Adult Sprague Dawley rats of both sexes (250-300 gm, Charles River Laboratories, Wilmington, MA, USA) were injected with peptide plus equimolar ferric iron once daily by subcutaneous bolus injection, days 1-7; Treatment group sizes were (n=6): group S=sham-treated; group B=burn+vehicle; group V=burn+1 mg/kg V-nephrilin (V); group sV=burn+1 mg/kg sV-nephrilin (immX3N1sV); group T=burn+1 mg/kg Traumatin-3N1A. The first dose was administered after completion of the scald procedure. Injection volume was 400 uL. Control animals received the same volume of vehicle. On Day 8, animals received a single intraperitoneal injection of 2.5 mg/kg lipopolysaccharide (LPS; Sigma Cat #L-2880) and animals were then monitored by oximeter (MouseOx, Starr Life Sciences) for 4 hours, when respiratory distress (breath distension*breaths/min) was assessed relative to baseline. This was followed by sacrifice and tissue collection as in the published protocol, except that bronchoalveolar lavage (BAL) was collected and cells were recovered from BAL by centrifugation. These cells were stained with fluorescently-labeled antibodies for flow cytometry in order to ascertain granulocyte counts, as shown below. Results of the peptide comparison are presented in the table below. *p<0.05 vs “B” control. #p<0.05 vs “V” group.
# THP1-Dual monocytes [5] = experiment: THP1-Dual differentiation assay, immX3 peptide plus helper or inhibitor molecule; type: cell-based, human; details: immX3 peptide (330 nM) in all samples plus helper at the concentration given; immX3 with buffer = 100.0
# Protocol: as §1
# The THP1-Dual cell differentiation assay was carried out as described above in Example 2, using immX3 peptide (330 nM) in all samples plus the indicated helper or inhibitor molecule. AU=arbitrary ELISA units. **p<0.01.
# [6] = Day 1, burn + 1 mg/kg peptide plus equimolar ferric iron, subcutaneous once daily
# [7] = burn + 1 mg/kg peptide plus equimolar ferric iron, subcutaneous once daily
# [8] = burn + 1 mg/kg peptide days 1-7
# [9] = Day 8, after LPS, burn + 1 mg/kg peptide days 1-7
compound,measurement,setting,value
KKGFYKKKQCRPSKGRKRGFCWRVD [immX3RVD],CCL22,THP1-Dual monocytes [1]; culture supernatant,272.5 ± 35.7 pg/mL
same,CD169+ (AU),THP1-Dual monocytes [1]; relative to immX3AVD = 100,88.1 ± 4.2 AU
same,"Ferric iron binding, fluorescence standardized to immX3AVD control peptide (100), Avg ± SD",[2],97.5 ± 5.1
"(rg108)-KKGFYKKKQCRPSKGRKRGFCW (RG108-KKGFYKKKQCRPSKGRKRGFCW; cysteine pairing not given here) [imm3rg8, imm3 N-terminally conjugated with RG108]","percent survival of A375 cells, +RIG-I ag",A375 cells; peptide 2 uM plus RIG-I agonist 4 uM,105.8%
same,"percent survival of A375 cells, Buffer","A375 cells; peptide 2 uM, no RIG-I agonist",89.9** percent
CC(C)C[C@H](NC(=O)[C@H](Cc1ccc(O)cc1)NC(=O)[C@H](CC(=O)O)NC(=O)[C@H](CCC(=O)O)NC(=O)[C@@H](NC(=O)[C@@H](NC(=O)CNC(=O)[C@@H](N)CCCNC(=N)N)C(C)C)[C@@H](C)O)C(=O)N[C@@H](CCCNC(=N)N)C(=O)N[C@@H](CC(C)C)C(=O)N[C@@H](CCC(=O)O)C(=O)N[C@H](C(=O)N[C@@H](CC(C)C)C(=O)N[C@H](C(=O)N[C@@H](CCC(N)=O)C(=O)N[C@@H](CCCCN)C(=O)N[C@H](C(=O)N[C@H](C(=O)N[C@@H](CO)C(=O)N[C@@H](CCCCN)C(=O)NCC(=O)N[C@@H](Cc1ccccc1)C(=O)N[C@@H](Cc1ccc(O)cc1)C(=O)N[C@@H](CCCCN)C(=O)N[C@@H](CCCCN)C(=O)N[C@@H](CCCCN)C(=O)N[C@@H](CCC(N)=O)C(=O)N[C@@H](CS)C(=O)N[C@@H](CCCNC(=N)N)C(=O)N1CCC[C@H]1C(=O)N[C@@H](CO)C(=O)N[C@@H](CCCCN)C(=O)NCC(=O)N[C@@H](CCCNC(=N)N)C(=O)N[C@@H](CCCCN)C(=O)N[C@@H](CCCNC(=N)N)C(=O)NCC(=O)N[C@@H](Cc1ccccc1)C(=O)N[C@@H](CS)C(=O)N[C@@H](Cc1c[nH]c2ccccc12)C(=O)O)C(C)C)C(C)C)C(C)C)[C@@H](C)O [V-nephrilin] (H-RGVTEDYLRLETLVQKVVSKGFYKKKQCRPSKGRKRGFCW-OH; N-terminus and C-terminus assumed),remaining at 20 min,[3]; 2 μg/ml protease,79 ± 0.7%
same,remaining at 20 min,[3]; 8 μg/ml protease,57.6 ± 2.3%
same,Plasma IL-6,[4]; [6],31.4 ± 19 pg/mL
same,Plasma albumin mg/ml (24 hr IR),[4]; [6],7.9 ± 2.1 mg/mL
same,Change in body weight (Pct vs Day 1),[4]; [7],−9.8 ± 2.9 Pct
same,Respiratory distress (Gp. “S” = 100),[4]; [8],349 ± 95
same,Wet/dry lung weight (corrected for body weight),[4]; [8],7.97 ± 0.76
same,BAL His48+ granulocytes (FITC units),[4]; [9],28.9 ± 3.1* FITC units
same,BAL fluid IL1-beta,[4]; [9],112.8 ± 9.4 pg/mL
same,Plasma OHDG,[4]; [9],1.44 ± 1.0 ng/mL
same,Plasma creatinine,[4]; [9],0.91 ± 0.3 mg/dL
RGVTEDYLRLETLVQKVVSKGFYKKKQCRPSKGRKRGFCWAVD (cysteines drawn unpaired) [sV-nephrilin],remaining at 20 min,[3]; 2 μg/ml protease,90.4 ± 3.4%
same,remaining at 20 min,[3]; 8 μg/ml protease,75.1 ± 2.8%
same,Plasma IL-6 (pg/ml),[4]; [6],17.5 ± 9.3* pg/ml
same,Plasma albumin mg/ml (24 hr IR),[4]; [6],7.4 ± 1.6* mg/ml
same,Change in body weight (Pct vs Day 1),[4]; [7],−5.1 ± 3.6* Pct
same,Respiratory distress (Gp. “S” = 100),[4]; [8],203 ± 30*#
same,Wet/dry lung weight (corrected for body weight),[4]; [8],7.07 ± 0.48*
same,BAL His48+ granulocytes (FITC units),[4]; [9],26.8 ± 4.0* FITC units
same,BAL fluid IL1-beta (pg/ml),[4]; [9],67.1 ± 16*# pg/ml
same,Plasma OHDG (ng/ml),[4]; [9],1.31 ± 0.6* ng/ml
same,Plasma creatinine (mg/dL),[4]; [9],0.73 ± 0.2* mg/dL
"Oc1c(C(Nc2nc3ccccc3s2)c2ccc(OC(F)F)cc2)ccc2cccnc12 (centres unmarked) [RIG-I agonist [b], reference compound]","percent survival of A375 cells, RIG-I ag without peptide",A375 cells; RIG-I agonist 4 uM alone (No peptide),100.7%
same,CD169 (AU),THP1-Dual monocytes [5],131.6 ± 4.6** AU
